In experiment [1] the test system is MGSA (RNA, aptamer) GGAUCCCGACUGGCGAGAGCCAGGUAACGAAUGGAUCCACACACACACACACACACACGCAUGCAUACCGACCAGAAUCAUGCAAGUGCGUAAGAUAGUCGCGGGCCGGGAUGCAUGC
The experiment can be described thus: fluorogen fluorescence on RNA array. The settings on record: 20 mM NaCl, 6 mM MgCl2; 40 mM Tris-HCl pH 7.8, room temperature, 2 h; 40 µM malachite green; immobilised RNA.

Experiment [2] has as its system SpinachSA (RNA, aptamer) GGGGACGCGACUGAAUGAAAUGGUGAAGGACGGGUCCAGGUGUGGCUGCUUCGGCAGUGCAGCUUGUUGAGUAGAGUGUGAGCUCCGUAACUAGUCGCGUCUUUUUUUUUUUUUUUUUUCGAUCGAUACCGACCAGAAUCAUGCAAGUGCGUAAGAUAGUCGCGGGCCGGGAUCGAUCG
The experiment can be described thus: fluorogen fluorescence on RNA array, in situ during transcription. The settings on record: 1X MEGAscript T7 transcription buffer, 37 °C, 90 min; 152 µM DFHBI; immobilised RNA.

Regarding `CN(C)c1ccc(C(=C2C=CC(=[N+](C)C)C=C2)c2ccccc2)cc1`, in experiment [1], the binding result is recorded as “yes”.

As to `CC1=N/C(=C\c2cc(F)c(O)c(F)c2)C(=O)N1C`, in experiment [2], the binding result is listed as “yes”.

Source of the values: publication PMC7068705 (2019).
